Experimental data reported in patent US20190350887A1, “INCREASING BIOAVAILABILITY OF IRON WITH AVENANTHRAMIDE 2c” (priority 2018, published 2019).

System: Caco-2 cells
Experiment: in vitro Caco-2 cell bioassay of iron bioavailability (ferritin formation)
Format: cell-based
Conditions: for effect on iron bioavailability: same testing conditions as avenanthramide 2c (FIG. 1)
Method: FIG. 1 is a graph illustrating the results of in vitro tests that were performed in order to predict the effect that avenanthramide 2c, avenanthramide 2p, and avenanthramide 2f would have on iron bioabsorption in humans. Specifically, an in vitro Caco-2 cell bioassay was used that accurately predicts how a compound will influence iron bioabsorption in humans. In these cells, the intracellular iron storage protein known as ferritin forms in direct proportion to cell iron uptake.
[…] The ferric chloride solution is administered to the cells by itself (as a control) and along with the compound(s) being tested to assess their effect iron bioavailability, as measured by the amount of ferritin formed in the cells—a sensitive and accurate measurement of cell iron uptake. The test protocol measures the total weight of cell protein and the total weight of ferritin produced by the cells in order to generate a weight ratio of ferritin to cell protein (in units of ng ferritin formed per mg cell protein). The ratios from the test samples are compared against a control sample wherein only ferric chloride is administered to the cells. Test samples with higher ferritin values (ng ferritin/mg cell protein) compared to the control indicate improvement or enhancement of iron bioavailability, whereas test samples with ferritin values approximately equal to (or within the margin of error) or less than the control indicates no effect on iron bioavailability or inhibition of iron bioavailability, respectively.

COc1cc(/C=C/C(=O)Nc2ccc(O)cc2C(=O)O)ccc1O [avenanthramide 2f, 5-hydroxy-2-[[(E)-3-(4-hydroxy-3-methoxyphenyl)prop-2-enoyl]amino]benzoic acid, reference compound]
effect on iron bioavailability: negligible or zero effect

O=C(/C=C/c1ccc(O)c(O)c1)Nc1ccc(O)cc1C(=O)O [avenanthramide 2c, 2-[[(E)-3-(3,4-dihydroxyphenyl)prop-2-enoyl]amino]-5-hydroxybenzoic acid]
iron bioavailability (ferritin formation) compared with control (5 μM avenanthramide with 10 μM ferric chloride, control = ferric chloride only): more than double the control value
ferritin formation relative to control (20 μM avenanthramide with 10 μM ferric chloride): more than 3.5 times the control value
ferritin formation, increase over the 5 μM sample (20 μM avenanthramide with 10 μM ferric chloride, relative to 5 μM sample): more than 1.5 factor
ferritin value compared with control and lower concentrations (30 μM avenanthramide with 10 μM ferric chloride): still above the values measured at 10 μM and 5 μM, and well above control

O=C(/C=C/c1ccc(O)cc1)Nc1ccc(O)cc1C(=O)O [avenanthramide 2p, 5-hydroxy-2-[[(E)-3-(4-hydroxyphenyl)prop-2-enoyl]amino]benzoic acid, reference compound]
effect on iron bioavailability: negligible or zero effect
